The record followed here is BindingDB's records for patent US9365558 (Bristol Myers Squibb, 2016).

Molecules are shown by their SMILES.

This assay addresses 2-acylglycerol O-acyltransferase 2 (Homo sapiens, UniProt Q3SYC2). Kind of assay: LCMS Assay. To be noted: pH 7.4; 65 °C. As for the experimental part:
The MGAT enzyme reactions were performed in Corning FALCON® 96-well Polypropylene plates, in a total volume of 60 μL of 50 mM Potassium Phosphate buffer pH 7.4, containing a final concentration of 100 μM 2-oleoylglycerol, 15 μM oleoyl-Coenzyme A and 0.0013 μg/μL Human or Mouse MGAT-2 or 0.0026 μg/μL Rat recombinant MGAT-2 membranes expressed in Sf9 cells. Assay plates were run through a fully automated robotics system and shaken for 5 seconds every minute for a total 10 minutes. The reactions were then quenched with 120 μL of ice cold methanol containing 1 μg/mL 1,2-distearoyl-rac-glycerol as the internal standard. Plates were shaken for 2 minutes and spun down to remove protein precipitation. After the spin, samples were transferred to LC/MS compatible PCR plates. For LC/MS analysis, a ThermoFisher Surveyor pump, utilizing a Waters Symmetry C8, 50×2.1 mm column, was used for the chromatography of enzyme products. The buffer system consists of 0.1% formic acid in water with a mobile phase consisting 0.1% formic acid in methanol. The shallow gradient is 90-100% mobile phase in 0.2 min with a total run time of 2.3 min. The first 0.5 minutes of each injection was diverted to waste to eliminate the presence of Phosphate buffer in the enzymatic reaction. The column was run at 0.6 mL/min and a temperature of 65° C.

2-acylglycerol O-acyltransferase 2, sequence (Q3SYC2 whole entry): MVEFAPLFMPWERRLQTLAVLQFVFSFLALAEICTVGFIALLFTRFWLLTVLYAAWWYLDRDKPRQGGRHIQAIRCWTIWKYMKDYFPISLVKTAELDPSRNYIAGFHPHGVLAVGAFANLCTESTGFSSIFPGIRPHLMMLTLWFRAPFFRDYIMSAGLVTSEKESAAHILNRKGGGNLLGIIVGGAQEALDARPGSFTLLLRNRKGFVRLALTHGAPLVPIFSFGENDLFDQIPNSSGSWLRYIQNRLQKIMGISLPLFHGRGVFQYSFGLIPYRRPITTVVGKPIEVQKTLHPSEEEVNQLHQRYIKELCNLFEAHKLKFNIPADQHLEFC

Regarding `CC(C)(C)n1ccc(C2=C(C(=O)NS(=O)(=O)C3CC3)C(=O)N[C@@](c3ccc(OCCCCCC(F)(F)F)cc3)(C(F)(F)F)C2)n1` [US9365558, 80], half-maximal inhibition (IC50) required 40 nM.

In the case of `Cc1ccc(C2=C(C(=O)NS(=O)(=O)N(C)C)C(=O)N[C@@](c3ccc(OCCCC(F)(F)F)cc3)(C(F)(F)F)C2)cc1` [US9365558, 31], the IC50 – broadly, the concentration that inhibits the measured activity by half – worked out at 38 nM.
